According to patent publication US10335420B2, “Nanoparticle-based tumor-targeted drug delivery” (The Scripps Research Institute, priority 2010, dated 2019):
Read-outs that look alike come from different tables or passages of the source.

Columns and labels:
[1] = type: in vivo; settings: 5 mg/kg doxorubicin i.v.
Experimental: The dose of doxorubicin for all groups was 5 mg/kg.
Female BALB/c mice were injected orthotopically with 4TO7 breast tumor cells. Tumors were allowed to establish and reach a size of approximately 500 mm^3 prior to treatment. […] Doxorubicin was administered at about 5 mg/kg in 200 μl of PBS for all groups; n=5 mice per group.

4TO7 orthotopic tumors = assay: Doxorubicin biodistribution in tumor-bearing mice by fluorescence microscopy; type: in vivo; settings: two i.v. injections, about 24 h after the last injection
Experimental: Doxorubicin was also loaded into RR-11a^− NPs (NP-Dox) as a control. […] Data represent means±s.e.m. The percentage of the drug uptake concentration was determined by comparing the MFI of RDZ-218, NP-Dox, and Free Dox-treated cells with that of serially diluted doxorubicin; see FIG. 2b. […] Data is shown relative to untreated cells (Control); n=3 wells per group. Data represent means±s.e.m. *p<0.05, **p<0.005. 4TO7 cells were injected into the inguinal mammary fat pad of female BALB/c mice. Tumors were allowed to establish for about 5 d, to a size of approximately 500 mm^3, after which mice were given two i.v. injections with RDZ-218, NP-Dox or Free Dox. Mice were sacrificed about 24 h after the last injection and tissues were isolated and immediately analyzed by fluorescence microscopy to detect distribution of doxorubicin; see FIG. 2d. Tissue sections were also stained with DAPI to visualize cell nuclei; n=2 mice per group; scale bars, 100 μm.

4TO7 tumors = assay: 4TO7 tumor growth in mice treated with Leg-NP-CDDO; type: in vivo, BALB/c mice; settings: 8 i.v. injections
Experimental: In vivo tumor studies. 4TO7 (5×10^3) cells or MMTV-Neu (1×10^4) primary tumor cells were injected orthotopically into female BALB/c or FVB/NJ mice, respectively. NPs in 200 μl of PBS (about 1.36×10^13 particles) were administered i.v. and tumor dimensions measured using digital microcalipers. Tumor volume was calculated using the formula [(a^2×b)/2], where ‘a’ is the larger of two perpendicular diameters. For recurrence studies, primary tumors were surgically removed and mice re-challenged orthotopically in the contralateral mammary fat pad. Mice were vaccinated 3 times orally at 1 week intervals by gavage with attenuated salmonella typhimuirum (1×10^8 CFU per mouse) transduced with either pNeuTm (provided by Wei-Zen Wei, Karmanos Cancer Center, Detroit, Mich., USA) or empty vector.
Leg-NP-CDDO suppresses growth of murine breast tumors. To evaluate the in vivo effects of Leg-NP-CDDO, BALB/c mice were orthotopically challenged with about 5×10^3 4TO7 tumor cells and 4 days later, treated them with 8 i.v. injections of Leg-NP-CDDO or controls (FIG. 7A).

SMILES	number of mice surviving, out of a total of 5 ([1]; after treatment 0)	number of mice surviving, out of a total of 5 ([1]; after treatment 1, 24-hour intervals)	doxorubicin fluorescence in tumors (4TO7 orthotopic tumors)	primary tumor growth (4TO7 tumors)	dose required for effective Stat3 inhibition (STAT-3) [nmol/L]
COc1cccc2c1C(=O)c1c(O)c3c(c(O)c1C2=O)C[C@@](O)(C(=O)CO)C[C@@H]3O[C@H]1C[C@H](N)[C@H](O)[C@H](C)O1 [Free Dox, doxorubicin]	5/5	0/5	strikingly reduced or punctate	–	–
CC1(C)CC[C@]2(C(=O)n3ccnc3)CC[C@]3(C)[C@H](C(=O)C=C4[C@@]5(C)C=C(C#N)C(=O)C(C)(C)[C@@H]5CC[C@]43C)[C@@H]2C1 [CDDO-Im, 1-[2-cyano-3-,12-dioxooleana-1,9(11)-dien-28-oyl]imidazole]	–	–	–	markedly less effective	100
